Source: ChEMBL document CHEMBL1158216, “Globostellatic acids A-D, new cytotoxic isomalabaricane triterpenes from the marine sponge Stelletta globostellata” (J Nat Prod, 1996)

Tested on: P388
Assay: Cytotoxicity against mouse P388 cells
Type: functional, cell-based

Structure (SMILES) | IC50 [µg/mL]
CC(=O)O[C@@H]1CC[C@@]2(C)[C@@H](CC[C@]3(C)/C(=C(\C)C(=O)/C=C/C(C)=C/C=C/C(C)(C)O)C(=O)C[C@@H]23)[C@@]1(C)C(=O)[O-].[Na+] [GLOBOSTELLATIC ACID A] | 0.1
COC(/C=C/C(C)(C)O)/C(C)=C/C=C/C(C)=C1\C(=O)C[C@H]2[C@@]3(C)CC[C@@H](OC(C)=O)[C@](C)(C(=O)[O-])[C@@H]3CC[C@]12C.[Na+] (some centres undefined) [GLOBOSTELLATIC ACID B] | 0.1
COC(/C=C/C(C)=C/C=C/C(C)=C1\C(=O)C[C@H]2[C@@]3(C)CC[C@@H](OC(C)=O)[C@](C)(C(=O)[O-])[C@@H]3CC[C@]12C)C(C)(C)O.[Na+] (some centres undefined) [GLOBOSTELLATIC ACID C] | 0.46
COC(/C=C/C(C)=C/C=C/C(C)=C1\C(=O)C[C@H]2[C@@]3(C)CC[C@@H](O)[C@](C)(C(=O)[O-])[C@@H]3CC[C@]12C)C(C)(C)O.[Na+] (some centres undefined) [GLOBOSTELLATIC ACID D] | 0.1
